The target of data set [1] is ALK (Homo sapiens, UniProt Q9UM73). The experiment in a line: ALK kinase activity inhibition, Caliper mobility shift assay, method 2. Format: biochemical. Conditions: ALK 1.25 nM, ATP 30 μM. The protocol: 2. ALK Kinase Activity Inhibition Experiment:
Method 2: Caliper mobility shift assay was used to measure ALK protein kinase activity. The method is basically the same as method 1, with individual parameters adjusted. The initial concentration of the compound is 1 mM, and sequentially diluted 4-fold to make 6 points (7 points for some individual compounds). Use a dispenser Echo 550 to transfer 250 nL of 100-fold final concentration of the compound to the target plate 3573, add 10 μL ALK with final concentration of 1.25 nM, incubate at room temperature for 10 minutes (the negative control well contains 10 μL kinase buffer and 250 nL 100% DMSO; the positive control well contains 10 μL kinase solution and 250 nL 100% DMSO). On the kinase ALK, add 15 μL of ATP with a final concentration of 30 μM and 3 μM of the substrate peptide No. 22 mixed solution to react for 25 minutes; add 30 μL of stop detection solution containing EDTA to stop the kinase reaction. Use Caliper EZ Reader to read the conversion rate. Inhibition rate %=(Average positive control conversion rate %−Sample conversion rate %/(Average positive control conversion rate %−Average negative control conversion rate %). Among them: negative control wells represent the conversion rate readings without enzyme activity; positive control wells represent the conversion rate readings of wells without compound inhibition. Take the log value of the concentration as the X-axis, and the percentage inhibition rate on the Y-axis. Log (inhibitor) vs. response—Variable slope of analysis software GraphPad Prism 5 was used to fit the curve to obtain the IC50 value of each compound on the enzyme activity. Calculation formula: Y=Bottom+(Top−Bottom)/(1+10^((Log IC50−X)*HillSlope)).

Data set [2] deals with MAP4K1 (HPK1) (Homo sapiens, UniProt Q92918). Put plainly: MAP4K1 (HPK1) kinase activity inhibition, Caliper mobility shift assay. Type of data set: biochemical. Conditions: kinase 1.25 nM, ATP 10.1 μM. An outline of the steps: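 HPK1 kinase at 1.25 nM final preincubated 10 min at room temperature with compound (5 points, 5-fold dilutions from 500 nM), then reacted 120 min with 10.1 μM ATP and 3 μM substrate peptide No. 25. EDTA stop; mobility-shift conversion read, IC50 from variable-slope four-parameter fit of % inhibition.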
MAP4K1 (HPK1), sequence (Q92918 whole entry): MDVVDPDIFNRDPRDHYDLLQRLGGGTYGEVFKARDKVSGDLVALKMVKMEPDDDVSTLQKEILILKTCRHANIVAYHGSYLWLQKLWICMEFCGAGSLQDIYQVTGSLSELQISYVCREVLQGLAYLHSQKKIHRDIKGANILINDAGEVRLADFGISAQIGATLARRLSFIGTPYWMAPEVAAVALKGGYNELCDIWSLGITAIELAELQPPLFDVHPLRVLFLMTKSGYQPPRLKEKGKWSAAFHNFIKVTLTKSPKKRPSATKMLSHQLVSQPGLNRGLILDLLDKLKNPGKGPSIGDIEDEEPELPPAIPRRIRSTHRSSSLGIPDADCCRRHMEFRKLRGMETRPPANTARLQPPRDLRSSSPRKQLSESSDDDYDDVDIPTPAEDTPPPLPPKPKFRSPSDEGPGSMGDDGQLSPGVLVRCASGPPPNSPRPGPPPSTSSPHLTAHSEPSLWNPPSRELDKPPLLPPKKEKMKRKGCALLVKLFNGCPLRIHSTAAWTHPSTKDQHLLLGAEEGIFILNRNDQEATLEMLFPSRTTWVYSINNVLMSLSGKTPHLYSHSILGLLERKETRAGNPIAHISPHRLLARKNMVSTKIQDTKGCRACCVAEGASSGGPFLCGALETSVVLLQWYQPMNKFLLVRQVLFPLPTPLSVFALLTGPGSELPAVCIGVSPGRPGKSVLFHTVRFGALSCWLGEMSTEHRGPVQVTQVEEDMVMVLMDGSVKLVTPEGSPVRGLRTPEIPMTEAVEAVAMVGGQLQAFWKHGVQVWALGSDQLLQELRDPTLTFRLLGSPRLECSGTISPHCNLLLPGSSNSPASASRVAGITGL

The nature of data set [3]: Pharmacokinetic study in rats after intragastrical administration. Format: in vivo. The conditions noted are these: male, rat, plasma, po, SD rats, 3 mg/kg. The protocol: Example 55: Pharmacokinetic Study in Rats
Instruments: XEVO TQ-S LC/MS instrument produced by Waters. All measurement data is collected and processed by Masslynx V4.1 software, and the data is calculated and processed by Microsoft Excel. Using WinNonLin 8.0 software, the statistical moment method was used to calculate the pharmacokinetic parameters. Mainly include kinetic parameters Tmax, T1/2, Cmax, AUClast etc. […] Injection volume: 5 μL.
Animals: 3 male SD rats with a weight range of 200-220 g. After purchase, they will be kept in the laboratory of the Experimental Animal Center for 2 days and then used. They will be fasted for 12 hours predose and 4 hours after dosing. Drinking water is free during the test. After the rats were gavage, blood samples were taken according to the established time point.
Solvent: 0.5% Methylcellulose (aqueous solution containing 0.4% Tween 80 and 1% ethanol). Preparation of the solution for intragastrical administration: accurately weigh the compound, add it to the solvent, and ultrasonically at room temperature for 5 minutes to completely dissolve the drug, and prepare a 0.3 mg/ml medicinal solution.
Pharmaceutical samples: representative compounds of the structure shown in the patented formula (I) of the present invention, generally, multiple samples with similar structures (with a molecular weight difference of more than 2 units) are taken, accurately weighed, and administered together (cassette PK). In this way, multiple compounds can be screened at the same time and their oral absorption rates can be compared. A single administration was also used to study the pharmacokinetics of the drug sample in rats.
After intragastrical administration, blood was taken from the orbit at 0.25, 0.5, 1, 2, 4, 9, 12 and 24 hours, and placed in a plastic centrifuge tube pretreated with sodium heparin. After centrifugation, the supernatant plasma was used for LC-MS/MS analysis.
Accurately weigh the compounds to prepare different concentrations, perform quantitative analysis on mass spectrometry to establish a standard curve, and then test the concentration of the above-mentioned compound in the plasma to obtain the compound concentration at different time points. All measurement data are collected and processed by relevant software, and the statistical moment method is used to calculate the pharmacokinetic parameters (mainly including kinetic parameters Tmax, T1/2, Cmax, AUClast etc). The results are as follows:
Table 7: Pharmacokinetic Parameters of the Compounds after Intragastrical Administration in SD Rats

The target of data set [4] is EGFR (T790M/L858R/C797S) (Homo sapiens, UniProt P00533, C797S/L858R/T790M). The experiment in a line: EGFR (T790M/L858R/C797S) kinase activity inhibition, Caliper mobility shift assay. Format: biochemical. The conditions noted are these: kinase 2.5 nM, ATP 40 μM. The protocol:
The basic method is the same as ALK activity test method 2. The test concentration of the compound starts at 2 μM, and is diluted 5 folds into 6 (7 for individual compounds) concentration points. […] Add 30 μL of stop solution containing EDTA to stop the kinase reaction. Use Caliper EZ Reader to read the conversion rate. Inhibition rate %=(Average positive control conversion rate %−Sample conversion rate %/(Average positive control conversion rate %−Average negative control conversion rate %). Among them: negative control wells represent the conversion rate readings without enzyme activity; positive control wells represent the conversion rate readings of wells without compound inhibition. Take the log value of the concentration as the X-axis, and the percentage inhibition rate on the Y-axis. Log (inhibitor) vs. response—Variable slope of analysis software GraphPad Prism 5 was used to fit the curve to obtain the IC50 value of each compound on the enzyme activity. Calculation formula: Y=Bottom+(Top−Bottom)/(1+10^((Log IC50−X)*HillSlope)).

In data set [5] the target is Ba/F3_EGFR del19/T790M/C797S cells (Homo sapiens, UniProt P00533, T790M/C797S, cells depend on it, form not given). The experiment in a line: Ba/F3_EGFR (del19-T790M-C797S) cell proliferation inhibition, CTG, method 2. Type of data set: cell-based. Conditions: 2000 cells/well, 72 h, read-out: Ba/F3_EGFR (del19-T790M-C797S) cell proliferation inhibition (IC50 value) Method 2. Here is the method: Take a small amount of cells and count them with ViCell. 2) Adjust the cell density, inoculate the cells in a 384-well plate at 2000/well, and incubate in a 37° C., 5% CO2 incubator for 4 hours. 3) Set up the program of Tecan HP D300, add the compound to the well plate. The maximum initial concentration of the compound is 1-4 μM, 3 folds dilution, 9 concentrations, and the DMSO content in each well is unified to 0.2%.
Ba/F3_EGFR del19/T790M/C797S cells, sequence (P00533 with tags, fused parts or gaps DEL746-750/T790M/C797S, form open): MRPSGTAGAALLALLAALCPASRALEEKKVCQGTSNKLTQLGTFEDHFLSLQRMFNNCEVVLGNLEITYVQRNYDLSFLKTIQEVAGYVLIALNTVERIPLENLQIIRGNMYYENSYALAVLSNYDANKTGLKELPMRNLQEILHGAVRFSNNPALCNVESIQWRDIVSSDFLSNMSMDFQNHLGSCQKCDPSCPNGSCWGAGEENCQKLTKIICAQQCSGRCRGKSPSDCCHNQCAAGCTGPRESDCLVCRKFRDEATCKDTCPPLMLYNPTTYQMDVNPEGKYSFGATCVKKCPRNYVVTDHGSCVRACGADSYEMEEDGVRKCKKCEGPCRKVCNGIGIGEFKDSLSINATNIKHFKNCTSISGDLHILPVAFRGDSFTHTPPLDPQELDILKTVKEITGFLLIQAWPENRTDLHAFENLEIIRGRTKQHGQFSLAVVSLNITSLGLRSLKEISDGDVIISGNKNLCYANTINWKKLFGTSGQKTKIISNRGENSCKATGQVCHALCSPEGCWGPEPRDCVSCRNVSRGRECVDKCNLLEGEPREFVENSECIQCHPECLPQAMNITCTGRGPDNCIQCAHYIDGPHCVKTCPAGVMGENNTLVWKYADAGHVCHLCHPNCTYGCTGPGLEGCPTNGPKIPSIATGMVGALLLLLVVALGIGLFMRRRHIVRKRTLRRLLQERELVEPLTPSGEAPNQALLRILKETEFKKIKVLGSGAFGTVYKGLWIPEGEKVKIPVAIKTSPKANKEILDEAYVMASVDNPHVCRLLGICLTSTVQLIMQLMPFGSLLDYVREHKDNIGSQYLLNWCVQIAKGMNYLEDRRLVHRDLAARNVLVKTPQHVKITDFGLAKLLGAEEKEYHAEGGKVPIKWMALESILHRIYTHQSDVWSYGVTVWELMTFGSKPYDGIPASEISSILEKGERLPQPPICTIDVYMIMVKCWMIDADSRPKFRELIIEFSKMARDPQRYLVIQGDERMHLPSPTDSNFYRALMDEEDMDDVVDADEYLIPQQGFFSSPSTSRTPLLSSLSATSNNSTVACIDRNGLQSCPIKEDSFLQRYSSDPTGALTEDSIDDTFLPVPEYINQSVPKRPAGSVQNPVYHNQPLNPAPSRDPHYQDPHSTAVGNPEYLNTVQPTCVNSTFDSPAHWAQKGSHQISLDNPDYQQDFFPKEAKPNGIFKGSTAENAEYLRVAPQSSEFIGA
CTG method detection: 1) Take out the CTG reagent and cell plate and equilibrate at room temperature for 30 min, add 25 μL CTG to each well, shake at medium speed for 2 min, centrifuge at 1000 rpm for 1 minutes, and stand still at room temperature for 10 minutes. 2) Envision instrument reads the chemiluminescence signal value.
Data analysis: IC50 results are analyzed by IDBS's XL-fit 5.0 software.

Here are results for 1 molecule from patent US20220153766A1, “CONDENSED TRICYCLIC COMPOUND USED AS KINASE INHIBITOR” (Hangzhou Innogate Pharma Co., Ltd., priority 2019, published 2022).

ALK, sequence (Q9UM73 19-1620): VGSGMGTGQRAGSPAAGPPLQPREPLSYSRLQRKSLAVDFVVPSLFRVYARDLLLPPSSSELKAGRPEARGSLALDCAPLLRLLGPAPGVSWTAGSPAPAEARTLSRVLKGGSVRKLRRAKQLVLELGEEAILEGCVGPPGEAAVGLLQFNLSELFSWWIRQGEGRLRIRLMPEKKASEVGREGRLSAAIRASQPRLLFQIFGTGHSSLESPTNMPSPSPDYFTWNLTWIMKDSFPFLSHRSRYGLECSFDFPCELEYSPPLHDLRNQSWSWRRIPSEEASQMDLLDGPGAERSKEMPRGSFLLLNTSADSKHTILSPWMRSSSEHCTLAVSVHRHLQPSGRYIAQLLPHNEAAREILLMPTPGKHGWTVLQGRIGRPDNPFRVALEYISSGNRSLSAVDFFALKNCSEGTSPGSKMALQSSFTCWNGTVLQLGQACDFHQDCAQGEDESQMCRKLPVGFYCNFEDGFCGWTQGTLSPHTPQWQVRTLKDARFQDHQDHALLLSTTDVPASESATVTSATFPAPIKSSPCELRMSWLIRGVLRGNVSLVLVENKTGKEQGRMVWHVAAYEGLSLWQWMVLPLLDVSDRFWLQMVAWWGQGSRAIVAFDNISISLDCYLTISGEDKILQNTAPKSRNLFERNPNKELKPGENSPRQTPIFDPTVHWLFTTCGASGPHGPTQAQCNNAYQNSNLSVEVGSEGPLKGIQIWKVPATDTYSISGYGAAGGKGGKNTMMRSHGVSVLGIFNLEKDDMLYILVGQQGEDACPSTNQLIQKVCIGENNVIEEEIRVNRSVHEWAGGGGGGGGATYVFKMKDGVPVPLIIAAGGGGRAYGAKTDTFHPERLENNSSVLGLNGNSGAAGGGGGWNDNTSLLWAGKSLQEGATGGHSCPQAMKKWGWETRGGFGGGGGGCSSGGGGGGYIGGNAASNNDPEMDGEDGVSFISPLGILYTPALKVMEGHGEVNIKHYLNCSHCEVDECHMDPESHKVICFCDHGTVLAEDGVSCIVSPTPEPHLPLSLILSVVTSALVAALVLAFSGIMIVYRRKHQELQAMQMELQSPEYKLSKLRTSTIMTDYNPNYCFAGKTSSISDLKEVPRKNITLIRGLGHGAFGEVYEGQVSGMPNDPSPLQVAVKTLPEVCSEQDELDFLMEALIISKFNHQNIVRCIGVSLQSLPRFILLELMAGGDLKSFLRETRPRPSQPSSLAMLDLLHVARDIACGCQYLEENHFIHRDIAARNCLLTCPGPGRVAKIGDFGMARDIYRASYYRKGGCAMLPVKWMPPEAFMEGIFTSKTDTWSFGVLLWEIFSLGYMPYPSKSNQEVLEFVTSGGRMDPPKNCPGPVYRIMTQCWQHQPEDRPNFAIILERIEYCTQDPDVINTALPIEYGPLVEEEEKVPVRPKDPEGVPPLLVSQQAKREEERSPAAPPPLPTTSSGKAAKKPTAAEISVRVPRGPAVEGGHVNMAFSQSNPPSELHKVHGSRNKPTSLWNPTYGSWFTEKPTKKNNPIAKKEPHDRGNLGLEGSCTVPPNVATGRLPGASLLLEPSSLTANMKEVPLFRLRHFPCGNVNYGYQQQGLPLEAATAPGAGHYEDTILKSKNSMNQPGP
EGFR (T790M/L858R/C797S), sequence (P00533 25-1210 T790M/C797S/L858R): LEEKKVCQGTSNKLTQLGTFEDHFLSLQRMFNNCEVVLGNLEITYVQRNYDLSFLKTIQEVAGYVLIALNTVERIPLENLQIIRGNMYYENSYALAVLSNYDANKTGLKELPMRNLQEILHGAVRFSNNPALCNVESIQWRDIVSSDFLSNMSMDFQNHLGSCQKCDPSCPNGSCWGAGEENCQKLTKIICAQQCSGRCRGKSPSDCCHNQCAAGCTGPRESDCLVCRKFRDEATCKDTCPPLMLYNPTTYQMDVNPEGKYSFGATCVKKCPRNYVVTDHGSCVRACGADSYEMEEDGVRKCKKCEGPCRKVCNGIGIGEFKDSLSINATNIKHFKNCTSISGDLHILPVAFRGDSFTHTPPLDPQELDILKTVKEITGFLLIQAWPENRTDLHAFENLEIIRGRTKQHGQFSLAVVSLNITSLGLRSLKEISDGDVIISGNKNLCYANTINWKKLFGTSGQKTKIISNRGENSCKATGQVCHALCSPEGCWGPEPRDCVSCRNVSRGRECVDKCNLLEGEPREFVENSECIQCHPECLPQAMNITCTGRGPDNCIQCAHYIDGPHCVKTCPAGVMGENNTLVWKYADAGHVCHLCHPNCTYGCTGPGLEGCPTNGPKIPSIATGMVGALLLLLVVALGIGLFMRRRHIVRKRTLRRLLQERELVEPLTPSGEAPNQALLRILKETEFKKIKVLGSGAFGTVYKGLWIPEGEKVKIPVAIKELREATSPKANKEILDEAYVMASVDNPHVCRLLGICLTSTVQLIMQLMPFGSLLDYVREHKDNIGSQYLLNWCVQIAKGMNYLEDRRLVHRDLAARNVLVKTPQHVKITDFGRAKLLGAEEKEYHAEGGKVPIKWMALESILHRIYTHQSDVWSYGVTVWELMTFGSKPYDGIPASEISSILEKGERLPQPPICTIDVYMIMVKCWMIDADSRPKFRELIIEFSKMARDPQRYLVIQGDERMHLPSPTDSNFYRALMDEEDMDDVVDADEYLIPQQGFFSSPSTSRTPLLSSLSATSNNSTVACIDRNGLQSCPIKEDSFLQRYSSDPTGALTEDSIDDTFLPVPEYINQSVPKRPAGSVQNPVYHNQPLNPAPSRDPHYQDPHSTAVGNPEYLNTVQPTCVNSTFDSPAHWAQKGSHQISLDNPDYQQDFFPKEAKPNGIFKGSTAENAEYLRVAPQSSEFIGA

As usually defined, the IC50 is the concentration that inhibits the measured activity by half. A word on the Cmax: it is the highest concentration seen after dosing. Usually Tmax stands for the time at which the peak concentration occurs. One may read the half-life as how long it takes for the measured level to halve. Low values mean fast loss, high ones slow loss. With `CC(=O)N1CCC(N2CCN3c4c(C)cc(Nc5ncc(Cl)c(Nc6ccccc6P(C)(C)=O)n5)cc4OC[C@H]3C2)CC1` [Compound 32R], the 50% inhibitory concentration (IC50) in data set [1] lay in the range of 1 to 50 nM. Besides, the half-inhibitory concentration (IC50) in data set [2] is not above 1 nM. In data set [3], the Cmax turned out to be 306 ng/mL, the time of peak concentration (Tmax) stood at 2 h and the half-life is 117 min. Besides, the AUC(0-t) in data set [3] (read-out: AUC0-24 h) is 3420 ng·h/mL. Moreover, the IC50 in data set [4] was less than 3 nM. Further, in data set [5], the GI50 was 20 to 100 nM.
